In patent US6358515B2, “Hydroquinone derivatives” (Senju Pharmaceutical Co., Ltd., priority 1997, dated 2002):

Experiments:
[1] = system: Blood Pressure of SHR Rat; experiment: Effect on blood pressure of SHR rat (oral administration); assay type: in vivo, male SHR/Izm rats; conditions: mean ± SD (n = 4-5); for Blood pressure, 1 hr: 1 hr after 30 mg/kg orally; for Blood pressure, 2 hr: 2 hr after 30 mg/kg orally; for Blood pressure, 3 hr: 3 hr after 30 mg/kg orally; for Blood pressure, 4 hr: 4 hr after 30 mg/kg orally; for Blood pressure, 0 hr: initial value (0 hr) before administration
Procedure: The present compound was tested for its blood pressure lowering effect.
About 25-week old male SHR/Izm rats were used in the test.
Initial value of the blood pressure of rat tail vein was measured with a non-invasive automatic manometer for small animals, UR-5000 (UEDA Seisakusho), and then one of the test compounds 30 mg/kg was orally administered. Blood pressure was measured in the same manner 1, 2, 3 and 4 hours after administration. For analysis, Student t-test was conducted for the blood pressure measured at each time against the initial value.

[2] = system: Intraocular Pressure of Rabbit; experiment: Intraocular pressure lowering effect in rabbits (eye drop instillation, tonometer); assay type: in vivo, Male Dutch rabbits; conditions: for Intraocular pressure, 1 hr: 1 hr after instillation of 50 μl of 0.5% eye drops into the right eye; for Intraocular pressure, 1 hr / Intraocular pressure, 2 hr / Intraocular pressure, 3 hr / Intraocular pressure, 4 hr / Intraocular pressure, 0 hr: mean ± SD (n = 4-5); for Intraocular pressure, 2 hr: 2 hr after instillation of 50 μl of 0.5% eye drops into the right eye; for Intraocular pressure, 3 hr: 3 hr after instillation of 50 μl of 0.5% eye drops into the right eye; for Intraocular pressure, 4 hr: 4 hr after instillation of 50 μl of 0.5% eye drops into the right eye; for Intraocular pressure, 0 hr: initial value (0 hr) before instillation
Procedure: The present compound was tested for its intraocular pressure lowering effect.
Male Dutch rabbits of about 2.5 kg body weight were used in the test.
Intraocular pressure was measured by means of a contact type tonometer (ALCON Applanation Pneumatonograph) after instillation of oxybuprocaine hydrochloride [Anelocal (registered trademark) eye drops: SENJU Pharmaceutical Co., Ltd.] into both eyes of the rabbits for local anesthesia.
Eye drops were prepared each containing one of the test compounds at a concentration of 0.5% and 50 μl of it was instilled into the right eye. Intraocular pressure of both eyes was measured over time (0, 1, 2, 3, 4 hours). For analysis, Student t-test was conducted for the intraocular pressure measured at each time against the initial value.

[3] = Radical scavenging ability on the stable radical DPPH; conditions: for IC50: DPPH radical; for Radical scavenging activity (in words) / Radical scavenging rate (%): DPPH; for Radical scavenging activity (in words): 1-1000 μM; for Radical scavenging rate (%): 20 minutes, absorbance at 517 nm
Procedure: The present compound was tested for its scavenging ability on a stable radical of 1,1-diphenyl-2-picrylhydrazide (DPPH).
The test was carried out according to the method described by Blois, M. S., Nature, 181: 1199 ([…]).
Each of the test compound was dissolved in purified water to prepare 10^−5-10^−2 M test solutions. To 300 μl each of the test solutions was added 2.7 ml of a […] solution of the stable radical, DPPH, in ethanol and stirred. The mixture was allowed to stand for 20 minutes, and absorbance at 517 nm was measured. Radical scavenging ability was determined for each of the test solutions according to the following equation.
Radical scavenging rate (%)=(Absorbance of control−Absorbance of test solution[…])×100

melting point | SMILES | Blood pressure, 1 hr [1] | Blood pressure, 2 hr [1] | Blood pressure, 3 hr [1] | Blood pressure, 4 hr [1] | Blood pressure, 0 hr [1] [mmHg] | Intraocular pressure, 1 hr [2] | Intraocular pressure, 2 hr [2] | Intraocular pressure, 3 hr [2] | Intraocular pressure, 4 hr [2] | Intraocular pressure, 0 hr [2] [mmHg] | further results
138 to 140 °C | COc1ccccc1N1CCN(C(Oc2cc(C)c(O)c(OC)c2OC)C(C)O)CC1.Cl (stereo not shown) |  |  |  |  |  |  |  |  |  |  | 
168 to 170 °C (dec.) | COc1ccc(OC)c(N2CCN(CC(O)COc3ccc(O)cc3C)CC2)c1.Cl.Cl (stereo not shown) |  |  |  |  |  |  |  |  |  |  | 
205 to 207 °C | COc1ccc(OC)c(N2CCN(CC(O)COc3ccc(O)cc3)CC2)c1.Cl.Cl (stereo not shown) [Example 25, 1-(4-Hydroxyphenoxy)-3-[4-(2,5-dimethoxyphenyl)-1-piperazinyl]propan-2-ol dihydrochloride] |  |  |  |  |  | 26.8 ± 1.92^*2 mmHg | 25.4 ± 1.82^*2 mmHg | 28.6 ± 6.11 mmHg | 29.6 ± 2.07 mmHg | 31.6 ± 2.41 | 
213 to 215 °C (dec.) | COc1ccc(N2CCN(CC(O)COc3ccc(O)cc3)CC2)c(OC)c1.Cl.Cl (stereo not shown) |  |  |  |  |  |  |  |  |  |  | 
192 to 194 °C (dec.) | COc1ccccc1N1CCN(CC(O)COc2ccc(O)cc2C)CC1.Cl.Cl (stereo not shown) |  |  |  |  |  |  |  |  |  |  | 
170 to 172 °C | COc1ccccc1N1CCN(CC(O)COc2ccc(O)c(C(C)(C)C)c2)CC1.Cl (stereo not shown) [Example 20, 1-(3-tert-Butyl-4-hydroxyphenoxy)-3-[4-(2-methoxyphenyl)-1-piperazinyl]propan-2-ol hydrochloride] | 204.8 ± 16.9^*2 mmHg | 215.0 ± 11.0^*2 mmHg | 217.5 ± 15.2^*1 mmHg | 216.3 ± 18.0^*1 mmHg | 250.3 ± 14.3 | 22.2 ± 2.59^*1 mmHg | 25.2 ± 0.84 mmHg | 25.8 ± 2.59 mmHg | 28.0 ± 1.73 mmHg | 28.0 ± 3.81 | 

Second part, the compound before the results:

SMILES | melting point | Blood pressure, 1 hr [1] | Blood pressure, 2 hr [1] | Blood pressure, 3 hr [1] | Blood pressure, 4 hr [1] | Blood pressure, 0 hr [1] [mmHg] | Intraocular pressure, 1 hr [2] | Intraocular pressure, 2 hr [2] | Intraocular pressure, 3 hr [2] | Intraocular pressure, 4 hr [2] | Intraocular pressure, 0 hr [2] [mmHg] | further results
COc1ccccc1N1CCN(CC(O)COc2ccc(O)c(C)c2C)CC1.Cl (stereo not shown) [Example 22, 1-(2,3-Dimethyl-4-hydroxyphenoxy)-3-[4-(2-methoxyphenyl)-1-piperazinyl]propan-2-ol hydrochloride] | 228 to 230 °C (dec.) | 218.3 ± 11.3^*1 mmHg | 231.0 ± 14.5 mmHg | 236.5 ± 9.1 mmHg | 241.0 ± 9.8 mmHg | 247.0 ± 10.7 |  |  |  |  |  | 
COc1ccccc1N1CCN(CC(O)COc2cc(C)c(O)cc2C)CC1.Cl.Cl (stereo not shown) | 214 to 215 °C (dec.) |  |  |  |  |  |  |  |  |  |  | 
COc1ccccc1N1CCN(CC(O)COc2ccc(O)c(C)c2)CC1.Cl.Cl (stereo not shown) | 214 to 216 °C (dec.) |  |  |  |  |  |  |  |  |  |  | 
COc1ccccc1N1CCN(CC(O)COc2cc(C)c(O)c(C)c2C)CC1 (stereo not shown) [Example 23, 1-(2,3,5-Trimethyl-4-hydroxyphenoxy)-3-[4-(2-methoxyphenyl)-1-piperazinyl]propan-2-ol] | 163 to 165 °C | 193.3 ± 15.4 mmHg | 192.0 ± 10.8 mmHg | 179.3 ± 7.8^*1 mmHg | 192.0 ± 15.1 mmHg | 204.0 ± 14.4 | 20.8 ± 3.30^*1 mmHg | 22.8 ± 3.40 mmHg | 22.5 ± 3.42 mmHg | 23.8 ± 3.30 mmHg | 27.5 ± 3.42 | 
COc1ccccc1N1CCN(CC(O)COc2cc(C)c(O)c3ccccc23)CC1 (stereo not shown) [Example 2, 1-(3-Methyl-4-hydroxynaphthoxy)-3-[4-(2-methoxyphenyl)-1-piperazinyl]propan-2-ol] |  | 204.0 ± 17.6 mmHg | 192.2 ± 6.2^*1 mmHg | 191.2 ± 14.6^*1 mmHg | 187.8 ± 11.4^*1 mmHg | 216.8 ± 18.0 | 21.8 ± 2.05^*1 mmHg | 24.4 ± 1.82 mmHg | 25.8 ± 2.39 mmHg | 26.6 ± 2.88 mmHg | 25.2 ± 1.30 | IC50 [3]: 23 µM; Radical scavenging activity (in words) [3]: concentration-dependently exhibited a radical scavenging activity; Radical scavenging rate (%) ([3]; final concentration 1 μM): 7.8%; Radical scavenging rate (%) ([3]; final concentration 10 μM): 24.9%; Radical scavenging rate (%) ([3]; final concentration 30 μM): 61.0%; Radical scavenging rate (%) ([3]; final concentration 100 μM): 99.4%; Radical scavenging rate (%) ([3]; final concentration 1000 μM): 99.8%
COc1ccc(C)cc1N1CCN(CC(O)COc2ccc(O)cc2)CC1.Cl.Cl (stereo not shown) | 222 to 224 °C |  |  |  |  |  |  |  |  |  |  | 
COc1ccccc1N1CCN(CC(O)COc2cc(C)c(O)c(C)c2)CC1.Cl.Cl (stereo not shown) [Example 17, 1-(3,5-Dimethyl-4-hydroxyphenoxy)-3-[4-(2-methoxyphenyl)-1-piperazinyl]propan-2-ol dihydrochloride] | 208 to 210 °C (dec.) | 214.8 ± 9.9^*1 mmHg | 230.8 ± 13.0 mmHg | 225.0 ± 13.0 mmHg | 219.5 ± 10.6 mmHg | 247.3 ± 23.2 | 25.4 ± 2.79^*1 mmHg | 25.4 ± 2.88^*1 mmHg | 27.0 ± 3.08 mmHg | 28.6 ± 4.22 mmHg | 30.0 ± 3.08 | 
COc1ccccc1N1CCN(CC(O)COc2c(C)cc(O)c3ccccc23)CC1.Cl.Cl (stereo not shown) [Example 4, 1-(2-Methyl-4-hydroxynaphthoxy)-3-[4-(2-methoxyphenyl)-1-piperazinyl]propan-2-ol dihydrochloride] |  | 201.8 ± 7.7^*3 mmHg | 207.8 ± 13.8^*2 mmHg | 212.2 ± 3.8^*3 mmHg | 212.2 ± 20.8^*1 mmHg | 240.0 ± 8.5 | 17.3 ± 2.06^*3 mmHg | 15.0 ± 3.74^*2 mmHg | 15.8 ± 2.06^*3 mmHg | 20.8 ± 2.22^*2 mmHg | 26.5 ± 1.75 | Intraocular pressure lowering effect (in words) ([2]; 0.5% eye drops): a potent intraocular pressure lowering effect was observed since one hour after instillation; Time of peak intraocular pressure lowering effect after instillation ([2]; 0.5% eye drops): 2 h; IC50 [3]: 42 µM; Radical scavenging activity (in words) [3]: concentration-dependently exhibited a radical scavenging activity; Radical scavenging rate (%) ([3]; final concentration 1 μM): 6.7%; Radical scavenging rate (%) ([3]; final concentration 10 μM): 16.6%; Radical scavenging rate (%) ([3]; final concentration 30 μM): 37.7%; Radical scavenging rate (%) ([3]; final concentration 100 μM): 75.4%; Radical scavenging rate (%) ([3]; final concentration 1000 μM): 91.7%
